From ChEMBL document CHEMBL3046817, “The synthesis and investigation of the antimicrobial activity of some new phenylselanyl-1-(toluene-4-sulfonyl)-1H-tetrazole derivatives” (2009)
The source made the active and inactive calls. The calls are words filed in the database; no cut-off is given here.

Assays:
Yersinia enterocolitica [1] = assay: Antimicrobial activity against Yersinia enterocolitica ATCC 1501 at 25 ug/disk measured after overnight incubation by disk diffusion method; assay type: functional; settings: for zone of inhibition at 25 µg/disc: read-out: IZ
Staphylococcus aureus [2] = assay: Antimicrobial activity against Staphylococcus aureus ATCC 25923 at 25 ug/disk measured after overnight incubation by disk diffusion method; assay type: functional; settings: for zone of inhibition at 25 µg/disc: read-out: IZ
Salmonella enteritidis [3] = assay: Antimicrobial activity against Salmonella enterica subsp. enterica serovar Enteritidis ATCC 13076 at 25 ug/disk measured after overnight incubation by disk diffusion method; assay type: functional; settings: read-out: IZ
Pseudomonas aeruginosa [4] = assay: Antimicrobial activity against Pseudomonas aeruginosa ATCC 27853 at 25 ug/disk measured after overnight incubation by disk diffusion method; assay type: functional
Listeria monocytogenes [5] = assay: Antimicrobial activity against Listeria monocytogenes ATCC 7644 at 25 ug/disk measured after overnight incubation by disk diffusion method; assay type: functional
Escherichia coli [6] = assay: Antimicrobial activity against Escherichia coli ATCC 11230 at 25 ug/disk measured after overnight incubation by disk diffusion method; assay type: functional; settings: read-out: IZ
Bacillus cereus [7] = assay: Antimicrobial activity against Bacillus cereus RSKK 863 at 25 ug/disk measured after overnight incubation by disk diffusion method; assay type: functional; settings: for zone of inhibition at 25 µg/disc: read-out: IZ
Staphylococcus aureus [8] = assay: Antimicrobial activity against Staphylococcus aureus ATCC 25923 measured after overnight incubation by disk diffusion method; assay type: functional, organism-based
Yersinia enterocolitica [9] = assay: Antimicrobial activity against Yersinia enterocolitica ATCC 1501 measured after overnight incubation by disk diffusion method; assay type: functional
Salmonella enteritidis [10] = assay: Antimicrobial activity against Salmonella enterica subsp. enterica serovar Enteritidis ATCC 13076 measured after overnight incubation by disk diffusion method; assay type: functional
Pseudomonas aeruginosa [11] = assay: Antimicrobial activity against Pseudomonas aeruginosa ATCC 27853 measured after overnight incubation by disk diffusion method; assay type: functional
Listeria monocytogenes [12] = assay: Antimicrobial activity against Listeria monocytogenes ATCC 7644 measured after overnight incubation by disk diffusion method; assay type: functional
Bacillus cereus [13] = assay: Antimicrobial activity against Bacillus cereus RSKK 863 measured after overnight incubation by disk diffusion method; assay type: functional, organism-based
Escherichia coli [14] = settings: ATCC 11230
Description: Antimicrobial activity against Escherichia coli ATCC 11230 measured after overnight incubation by disk diffusion method

Row | SMILES | inhibition zone (IZ) (Yersinia enterocolitica [1]) | inhibition zone (IZ) (Staphylococcus aureus [2]) | zone of inhibition at 25 µg/disc (Salmonella enteritidis [3]) | inhibition zone (IZ) (Pseudomonas aeruginosa [4]) | zone of inhibition at 25 µg/disc (Listeria monocytogenes [5]; read-out: IZ) | zone of inhibition at 25 µg/disc (Escherichia coli [6]) | zone of inhibition at 25 µg/disc (Bacillus cereus [7]) | zone of inhibition at 25 µg/disc (Staphylococcus aureus [2]) | inhibition zone (IZ) (Listeria monocytogenes [5]) | inhibition zone (IZ) (Bacillus cereus [7]) | zone of inhibition at 25 µg/disc (Yersinia enterocolitica [1]) | inhibition zone (IZ) (Staphylococcus aureus [8]) | inhibition zone (IZ) (Yersinia enterocolitica [9]) | inhibition zone (IZ) (Salmonella enteritidis [10]) | inhibition zone (IZ) (Pseudomonas aeruginosa [11]) | inhibition zone (IZ) (Listeria monocytogenes [12]) | inhibition zone (IZ) (Bacillus cereus [13]) | zone of inhibition at 25 µg/disc (Pseudomonas aeruginosa [4]; read-out: IZ) | IZ (Escherichia coli [14])
1 | Cc1ccc([Se]c2nnnn2S(=O)(=O)c2ccc(C)cc2)cc1 | inactive | inactive | 3.2 mm | inactive | 5 mm | 4.6 mm | 2.8 mm |  |  |  |  |  |  |  |  |  |  |  | 
2 | Cc1ccc(S(=O)(=O)n2nnnc2[Se]c2ccc(Br)cc2)cc1 | inactive |  | 8.2 mm | inactive |  | 5.4 mm |  | 6.2 mm | inactive | inactive |  |  |  |  |  |  |  |  | 
3 | Cc1ccc(S(=O)(=O)n2nnnc2[Se]c2ccc(Cl)cc2)cc1 |  |  | 7.8 mm | inactive |  | 3.2 mm |  | 4.8 mm | inactive | inactive | 3.4 mm |  |  |  |  |  |  |  | 
4 | Cc1cc(NS(=O)(=O)c2ccc(N)cc2)no1 [SULFAMETHOXAZOLE] |  |  |  |  |  |  |  |  |  |  |  | inactive | inactive | 7.4 mm | 5.5 mm | 10.9 mm | inactive |  | 
5 | Cc1ccc(S(=O)(=O)n2nnnc2[Se]c2ccccc2Cl)cc1 |  |  | 7 mm |  |  | 7.4 mm | 3.2 mm | 4.2 mm | inactive |  | 5.6 mm |  |  |  |  |  |  | 4.4 mm | 
6 | Cc1ccc(S(=O)(=O)n2nnnc2[Se]c2ccccc2C)cc1 | inactive |  | 2.8 mm | inactive |  | 5.4 mm | 4.4 mm | 5.2 mm | inactive |  |  |  |  |  |  |  |  |  | 
7 | Cc1ccc(S(=O)(=O)n2nnnc2[Se]c2ccc(I)cc2)cc1 | inactive |  | 5.8 mm | inactive |  | 3.2 mm |  | 8.2 mm | inactive | inactive |  |  |  |  |  |  |  |  | 
8 | Cc1ccnc(NS(=O)(=O)c2ccc(N)cc2)n1 [SULFAMERAZINE] |  |  |  |  |  |  |  |  |  |  |  | inactive | 6.1 mm | 6.6 mm | 4.4 mm | 5.1 mm | inactive |  | inactive
